How the values were obtained:
[1] = target: HDAC6 (Homo sapiens (Human), UniProt Q9UBN7); settings: read-out: HDAC6 IC50
[2] = target: HDAC3 (Homo sapiens (Human), UniProt O15379); assay: HDAC enzyme assay, HDAC3; settings: for HDAC3 fold over HDAC6 IC50 (selectivity for HDAC6): ratio HDAC3/HDAC6; for IC50: read-out: HDAC3 IC50
[3] = target: HDAC2 (Homo sapiens (Human), UniProt Q92769); assay: HDAC enzyme assay, HDAC2; settings: for HDAC2 fold over HDAC6 IC50 (selectivity for HDAC6): ratio HDAC2/HDAC6; for IC50: read-out: HDAC2 IC50
Sequence of HDAC2 (Q92769 whole entry): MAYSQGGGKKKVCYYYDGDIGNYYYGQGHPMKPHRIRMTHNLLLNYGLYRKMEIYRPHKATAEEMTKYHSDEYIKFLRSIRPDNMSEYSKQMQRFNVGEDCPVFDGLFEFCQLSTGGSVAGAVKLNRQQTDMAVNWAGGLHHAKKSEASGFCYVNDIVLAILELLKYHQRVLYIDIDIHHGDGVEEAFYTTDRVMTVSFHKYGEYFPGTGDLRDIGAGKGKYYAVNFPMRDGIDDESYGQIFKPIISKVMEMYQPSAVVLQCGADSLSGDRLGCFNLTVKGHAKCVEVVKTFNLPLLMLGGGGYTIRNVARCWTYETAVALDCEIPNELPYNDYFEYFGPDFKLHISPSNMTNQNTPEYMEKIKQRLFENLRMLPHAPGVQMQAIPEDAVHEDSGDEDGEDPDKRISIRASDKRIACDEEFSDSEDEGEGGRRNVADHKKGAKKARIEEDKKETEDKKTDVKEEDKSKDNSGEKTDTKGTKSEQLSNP

[4] = target: HDAC1 (Homo sapiens (Human), UniProt Q13547); assay: HDAC enzyme assay, HDAC1; settings: for HDAC1 fold over HDAC6 IC50 (selectivity for HDAC6): ratio HDAC1/HDAC6; for IC50: read-out: HDAC1 IC50
Sequence of HDAC1 (Q13547 whole entry): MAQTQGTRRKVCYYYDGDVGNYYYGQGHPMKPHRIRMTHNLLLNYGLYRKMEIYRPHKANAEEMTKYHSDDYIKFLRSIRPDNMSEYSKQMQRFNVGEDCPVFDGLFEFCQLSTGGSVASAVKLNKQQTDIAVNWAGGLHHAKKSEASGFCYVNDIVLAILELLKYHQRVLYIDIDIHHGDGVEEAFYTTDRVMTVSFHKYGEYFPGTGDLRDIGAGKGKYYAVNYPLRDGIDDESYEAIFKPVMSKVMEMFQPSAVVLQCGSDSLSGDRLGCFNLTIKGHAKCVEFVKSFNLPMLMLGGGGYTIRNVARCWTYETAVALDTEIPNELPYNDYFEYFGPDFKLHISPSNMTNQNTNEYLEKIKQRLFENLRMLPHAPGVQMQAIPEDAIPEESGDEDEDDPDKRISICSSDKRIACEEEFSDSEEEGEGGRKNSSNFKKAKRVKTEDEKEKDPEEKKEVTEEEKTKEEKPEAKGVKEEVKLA

Sequence of HDAC6 (Q9UBN7 whole entry): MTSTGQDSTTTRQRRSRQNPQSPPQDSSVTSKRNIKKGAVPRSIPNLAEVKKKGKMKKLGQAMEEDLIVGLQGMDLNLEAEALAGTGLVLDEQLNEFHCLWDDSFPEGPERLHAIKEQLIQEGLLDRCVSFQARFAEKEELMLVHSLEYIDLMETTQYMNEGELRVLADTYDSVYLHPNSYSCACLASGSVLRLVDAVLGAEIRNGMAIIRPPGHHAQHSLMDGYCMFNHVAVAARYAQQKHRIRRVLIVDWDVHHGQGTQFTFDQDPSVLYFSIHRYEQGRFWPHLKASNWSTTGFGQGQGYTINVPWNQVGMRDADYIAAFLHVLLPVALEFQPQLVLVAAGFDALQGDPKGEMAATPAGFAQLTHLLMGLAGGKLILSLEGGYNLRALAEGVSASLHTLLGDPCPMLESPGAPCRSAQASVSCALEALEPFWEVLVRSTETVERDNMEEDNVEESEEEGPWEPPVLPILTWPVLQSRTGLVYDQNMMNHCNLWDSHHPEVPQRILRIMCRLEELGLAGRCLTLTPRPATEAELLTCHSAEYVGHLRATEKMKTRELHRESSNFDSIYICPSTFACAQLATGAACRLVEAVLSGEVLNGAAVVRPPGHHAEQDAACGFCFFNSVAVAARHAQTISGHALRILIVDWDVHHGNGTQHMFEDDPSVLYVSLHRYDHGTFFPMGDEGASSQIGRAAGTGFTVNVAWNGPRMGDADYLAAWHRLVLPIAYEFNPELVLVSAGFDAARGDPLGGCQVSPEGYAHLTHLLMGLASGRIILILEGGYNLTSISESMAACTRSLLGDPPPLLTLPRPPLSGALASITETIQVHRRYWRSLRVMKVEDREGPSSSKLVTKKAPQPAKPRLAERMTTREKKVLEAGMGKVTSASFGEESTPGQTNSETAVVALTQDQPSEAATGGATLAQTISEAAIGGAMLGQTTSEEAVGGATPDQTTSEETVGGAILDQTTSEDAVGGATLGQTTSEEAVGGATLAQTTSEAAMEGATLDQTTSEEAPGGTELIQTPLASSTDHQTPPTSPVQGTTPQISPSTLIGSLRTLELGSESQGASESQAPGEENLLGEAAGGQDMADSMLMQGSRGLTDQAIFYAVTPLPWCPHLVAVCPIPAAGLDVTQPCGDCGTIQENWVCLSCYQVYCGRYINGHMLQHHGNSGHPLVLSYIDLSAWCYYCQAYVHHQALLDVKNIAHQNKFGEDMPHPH
Sequence of HDAC3 (O15379 whole entry): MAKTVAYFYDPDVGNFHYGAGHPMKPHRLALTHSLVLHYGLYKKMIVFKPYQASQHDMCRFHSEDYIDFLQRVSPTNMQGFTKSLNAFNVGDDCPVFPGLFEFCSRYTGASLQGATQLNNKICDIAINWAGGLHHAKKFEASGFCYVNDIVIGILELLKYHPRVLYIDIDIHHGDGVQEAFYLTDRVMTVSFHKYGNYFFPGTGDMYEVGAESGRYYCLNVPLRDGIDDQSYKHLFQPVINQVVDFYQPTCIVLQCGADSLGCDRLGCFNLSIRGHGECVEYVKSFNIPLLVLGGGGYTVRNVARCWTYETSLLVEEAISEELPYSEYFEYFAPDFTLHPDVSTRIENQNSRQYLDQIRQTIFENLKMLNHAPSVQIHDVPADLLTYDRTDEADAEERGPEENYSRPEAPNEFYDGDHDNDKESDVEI
Sequence of HDAC3 (Q9Y618 395-489 partner): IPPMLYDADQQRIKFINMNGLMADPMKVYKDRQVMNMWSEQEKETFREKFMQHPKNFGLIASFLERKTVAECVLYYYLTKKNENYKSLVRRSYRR

| SMILES | IC50 [1] | HDAC3 fold over HDAC6 IC50 (selectivity for HDAC6) [2] | IC50 [2] | HDAC2 fold over HDAC6 IC50 (selectivity for HDAC6) [3] | IC50 [3] | HDAC1 fold over HDAC6 IC50 (selectivity for HDAC6) [4] | IC50 [4] |
| --- | --- | --- | --- | --- | --- | --- | --- |
| CC(C)(Nc1ncc(C(=O)NO)cn1)c1ccc(F)cc1F [Compound 70] | 3 nM | (441.9x) | 1310 nM | (327.2x) | 972 nM | (217.2x) | 645 nM |
| Cc1cc(F)ccc1C(C)(C)Nc1ncc(C(=O)NO)cn1 [Compound 72] | 19 nM | (656.2x) | 12300 nM | (427.2x) | 8010 nM | (306.9x) | 5750 nM |
| CC(C)(Nc1ncc(C(=O)NO)cn1)c1ccc(C(F)(F)F)cc1 [Compound 74] | 6 nM | (394.2x) | 2380 nM | (168.4x) | 1020 nM | (147.5x) | 889 nM |
| CC(C)(Nc1ncc(C(=O)NO)cn1)c1cccc(F)c1 [Compound 75] | 3 nM | (616.6x) | 1880 nM | (316.3x) | 966 nM | (374.2x) | 1140 nM |
| O=C(NO)c1cnc(NCc2cnccn2)nc1 [Compound 77] | 4 nM | (98.1x) | 434 nM | (76.9x) | 340 nM | (74x) | 328 nM |
| Cc1cc(C(C)(C)Nc2ncc(C(=O)NO)cn2)ccc1F [Compound 78] | 4 nM | (304.6x) | 1330 nM | (153.6x) | 669 nM | (137.3x) | 598 nM |
| CC(Nc1ncc(C(=O)NO)cn1)(c1ccccc1)c1ccccc1 [Compound 79] | 6 nM | (817.2x) | 4680 nM | (319.8x) | 1830 nM | (221.6x) | 1270 nM |
| CC(C)(Nc1ncc(C(=O)NO)cn1)c1ccc(Cl)c(Cl)c1 [Compound 80] | 2 nM | (100.3x) | 212 nM | (60.2x) | 127 nM | (40.4x) | 85 nM |
| O=C(NO)c1cnc(NC2(c3ccc(F)cc3)CC2)nc1 [Compound 81] | 3 nM | (46.4x) | 120 nM | (30.2x) | 78 nM | (18.3x) | 47 nM |
| CC(C)(Nc1ncc(C(=O)NO)cn1)c1ccc(Cl)cc1F [Compound 83] | 3 nM | (289x) | 928 nM | (140.9x) | 452 nM | (139.2x) | 447 nM |
| CC(C)(Nc1ncc(C(=O)NO)cn1)c1ccc(C(F)(F)F)cc1F [Compound 86] | 13 nM | (221.2x) | 2890 nM | (98.9x) | 1290 nM | (60.3x) | 788 nM |
| O=C(NO)c1cnc(NC(c2ccc(F)cc2)c2ccc(F)cc2)nc1 [Compound 89] | 3 nM | (158.8x) | 549 nM | (78.1x) | 270 nM | (64.4x) | 223 nM |
| CC(C)(Nc1ncc(C(=O)NO)cn1)c1cc(C(F)(F)F)cc(C(F)(F)F)c1 [Compound 92] | 33 nM | (134.4x) | 4420 nM | (68x) | 2240 nM | (41.3x) | 1360 nM |
| Cc1ccc(C2(Nc3ncc(C(=O)NO)cn3)CC2)cc1 [Compound 93] | 3 nM | (51x) | 157 nM | (34.7x) | 107 nM | (25.9x) | 80 nM |
| O=C(NO)c1cnc(NC2(c3ccco3)CC2)nc1 [Compound 99] | 4 nM | (81.5x) | 345 nM | (75.6x) | 320 nM | (47.3x) | 200 nM |
| O=C(NO)c1cnc(NC2(c3cccc(F)c3)CCCCC2)nc1 [Compound 101] | 7 nM | (1498.8x) | 11200 nM | (343.2x) | 2570 nM | (283.5x) | 2120 nM |
| O=C(NO)c1cnc(NC2CCCCC2)nc1 [Compound 103] | 46 nM | (23.9x) | 1100 nM | (18.1x) | 832 nM | (12.6x) | 578 nM |
| O=C(NO)c1cnc(NCc2cccs2)nc1 [Compound 105] | 4 nM | (92x) | 361 nM | (92.1x) | 361 nM | (54.5x) | 214 nM |
| O=C(NO)c1cnc(NCc2cccnc2)nc1 [Compound 106] | 4 nM | (47.7x) | 174 nM | (36.5x) | 133 nM | (25.3x) | 92 nM |

More lines, in order of falling IC50 [1], values ahead:

| IC50 [1] | HDAC3 fold over HDAC6 IC50 (selectivity for HDAC6) [2] | IC50 [2] | HDAC2 fold over HDAC6 IC50 (selectivity for HDAC6) [3] | IC50 [3] | HDAC1 fold over HDAC6 IC50 (selectivity for HDAC6) [4] | IC50 [4] | SMILES |
| --- | --- | --- | --- | --- | --- | --- | --- |
| 49 nM | (24x) | 1170 nM | (24.1x) | 1170 nM | (16.7x) | 813 nM | O=C(NO)c1cnc(NC2CCOCC2)nc1 [Compound 104] |
| 9 nM | (662.8x) | 5710 nM | (286.2x) | 2460 nM | (271.8x) | 2340 nM | CC(Nc1ncc(C(=O)NO)cn1)(c1ccc(F)cc1)c1ccc(F)cc1 [Compound 96] |
| 9 nM | (1428.4x) | 13500 nM | (504.7x) | 4760 nM | (339.9x) | 3210 nM | O=C(NO)c1cnc(NC2(c3ccc(F)cc3)CCCCC2)nc1 [Compound 100] |
| 7 nM | (613x) | 4520 nM | (403.4x) | 2970 nM | (302.2x) | 2230 nM | O=C(NO)c1cnc(NC2(c3ccccc3)CCCCC2)nc1 [Compound 84] |
| 4 nM | (260x) | 1060 nM | (149.7x) | 609 nM | (153.3x) | 624 nM | CC(C)(Nc1ncc(C(=O)NO)cn1)c1ccc(F)c(F)c1 [Compound 76] |
| 4 nM | (36.9x) | 135 nM | (26.2x) | 96 nM | (18.1x) | 67 nM | CC(Nc1ncc(C(=O)NO)cn1)c1ccncc1 (stereo not drawn) [Compound 85] |
| 3 nM | (679.1x) | 2240 nM | (296.1x) | 978 nM | (215.2x) | 711 nM | O=C(NO)c1cnc(NC2(c3ccccc3)CCCC2)nc1 [Compound 88] |
| 3 nM | (685x) | 2270 nM | (217.7x) | 722 nM | (176.7x) | 586 nM | O=C(NO)c1cnc(NC2(c3ccccc3)CCOCC2)nc1 [Compound 95] |
| 2 nM | (169.4x) | 374 nM | (130.2x) | 288 nM | (72.3x) | 160 nM | O=C(NO)c1cnc(NC2(c3ccccc3C(F)(F)F)CC2)nc1 [Compound 91] |
| 2 nM | (18x) | 33 nM | (11.3x) | 21 nM | (7.4x) | 13 nM | O=C(NO)c1cnc(NC2(c3cc4ccccc4s3)CC2)nc1 [Compound 102] |
| 1 nM | (30.2x) | 41 nM | (26.2x) | 36 nM | (19.9x) | 27 nM | O=C(NO)c1cnc(NC2(c3ccccc3Cl)CC2)nc1 [Compound 90] |
